Results taken from patent US12540150B1, “Fluorogenic probe using a Mislow-Evans rearrangement for real-time imaging of hydrogen peroxide” (University of Pittsburgh—Of the Commonwealth System of …, priority 2020, dated 2026).
“And” between values parts separate entries of the source, which are not always exact repeats. Identical values can stand only once.

Tests used:
[1] = tested on: endothelial cells; test: Localization of 1 in endothelial cells with MitoTracker Red, ionomycin stimulation; format: cell-based; conditions: ionomycin 10 μM
Experimental: To study the localization of 1, endothelial cells were simultaneously incubated with 1 μM MitoTracker® Red FM (ThermoFisher Scientific) for 20 min at 37° C. (FIG. 24D). The dish was inserted in a closed, thermo-controlled (37° C.) stage top incubator (Tokai Hit Co., Shizuoka-ken, Ja-pan) atop the motorized stage of an inverted Nikon TiE fluorescent microscope (Nikon Inc., Melville, NY) equipped with a 60× oil immersion optic (Nikon, CFI PlanFluor, NA 1.49) and NIS Elements Software. The sample was excited using the 555 nm line and detected using a TRITC filter set.

[2] = Fluorescence intensity of selenide 1 and phenol 5; format: physicochemical
Experimental: All fluorescence measurements (excitation 490 nm, emission 510-570 nm) were carried out using a Promega Biosystems Modulus II Microplate Reader or a HoribaMax Fluorometer unless otherwise stated. Data analysis was performed using GraphPad Prism 8.
The fluorescence intensity of selenide 1 and phenol 5 were investigated. Solutions containing ultrapure water (681 μL), […] phosphate pH 7 buffer (31 μL), DMSO (28.1 μL), and 80 μM 1 or phenol 5 in DMSO (9.4 μL) were made. Aliquots of these solutions (200 μL) were transferred to the wells of a black 96-well plate and the fluorescence was measured. As evident from FIG. 10 and Table 1, the difference in fluorescence intensity of probe 1 and phenol 5, is 27-fold. Generally, O-alkylation of Pittsburgh Green suppresses the fluorescence by 200-400 fold. The somewhat modest fluorescence increase in the current system is attributed to the trace contamination of the fluorescent compound 5 during the purification of the nonfluorescent probe 1.

[3] = Selectivity of 1: reaction with NO3^−; conditions: for Fluorescence: 15 min minus 0 min
Experimental: The probe 1 was then exposed to NO3^− at various concentrations. NaNO3 (30.9 mg) was dissolved in ultrapure water (2.00 mL). This solution was diluted to 10 μM, 100 μM, 1.00 mM, and 10.0 mM. H2O2 was diluted to 10 μM, 100 μM, 1.00 mM, and 10.0 mM. A solution of 100 μM 1 in ethanol (20 μL) was added to 5:95 methanol/50 mM pH 7 potassium phosphate buffer (160 μL). The NaNO3 or H2O2 solutions (20 μL) were added to the solution containing 1 and the fluorescence intensity was measured immediately and again after incubation at 25° C. for 15 min. The fluorescence change over the first 15 min was reported for NO3^− in FIG. 21 and Table 12. The fluorescence values in Table 12 are the fluorescence at 15 min minus the fluorescence at 0 min.

[4] = Selectivity of 1: reaction with ONOO^−; conditions: for Fluorescence Intensity: pH 7, 25° C., 15 min
Experimental: Next, it was tested whether OCl^− and ONOO^− (peroxynitrite), would react with 1. A solution of 0, 1, 10, or 22 μM ONOO— in 0.3 M NaOH (20 μL) or 1, 10, 100, or 1000 μM NaOCl in water (20 μL) was added to the wells of a black 96-well plate. A solution of 10 μM 1 in DMSO (560 μL) and 5:95 MeCN/1.2 M phosphate pH 7 buffer (4.48 mL) was made; this solution (180 μL) was transferred to each of the wells. The samples were allowed to incubate at 25° C. for 15 min before the fluorescence was measured. […] This may be attributed to trace amounts of H2O2 in the ONOO^− solution.

[5] = tested on: HeLa cells; test: Imaging of exogenously added H2O2 in HeLa cells; format: cell-based; conditions: 0.5 μM 1, 37° C.
Experimental: It was then attempted to image H2O2 within cells. HeLa cells were seeded on 35-mm glass bottom dishes (MatTek Corporation, Ashland, MA) and incubated with 0.5 μM 1 in 0.1% DMSO in DMEM (10% FBS with penicillin/streptomycin) prior to imaging. After washing with HBSS and replacing the media, H2O2 was added. The dish was inserted in a closed, thermo-controlled (37° C.) stage top incubator (Tokai Hit Co., Shizuoka-ken, Ja-pan) atop the motorized stage of an inverted Nikon TiE fluorescent microscope (Nikon Inc., Melville, NY) equipped with a 60× oil immersion optic (Nikon, CFI PlanFluor, NA 1.49) and NIS Elements Software. The sample was excited using the 470 nm line of a Lumencor diode-pumped light engine (SpectraX, Lumencor Inc., Beaverton OR). Fluorescence was detected using an ET-GFP filter set (Chroma Technology Corp) and ORCA-Flash 4.0 sCMOS camera (HAMAMATSU Corporation, Bridgewater, NJ).

For `Oc1ccc2c(c1)Oc1cc(O/C=C/C[Se]c3ccccc3)ccc1[C@@]21OCc2ccccc21` [Compound 1, (S,E)-6′-((3-(Phenylselanyl)prop-1-en-1-yl)oxy)-3H-spiro[isobenzofuran-1,9′-xanthen]-3′-ol], the “time after the addition of ionomycin of first image showing increased fluorescence” value [1] was no more than 8 s, the “signal increase in the conversion if trace phenol 5 can be removed from selenide 1” value ([2]; extrapolated) was 125-250 fold and the “difference in fluorescence intensity of probe 1 and phenol 5” value ([2]; phosphate pH 7 buffer) was 27 fold. The “Fluorescence Intensity” value ([2]; water/phosphate pH 7 buffer/DMSO, 200 μL, excitation 490 nm, emission 510-570 nm, replicates n = 3) was 7,053 and 11,524 and 8,556, the “reaction with NO3^−” value [3] was “did not react” and the Fluorescence ([3]; 0 μM NO3^− or H2O2, pH 7, 25° C.) was 24,359 and 26,870 and 26,226. The Fluorescence ([3]; 0.1 μM H2O2) was 58,172 and 52,104 and 52,249, the Fluorescence ([3]; 0.1 μM NO3^−) was 34,507 and 35,439 and 40,487 and the Fluorescence ([3]; 1 μM H2O2) was 266,770 and 242,313 and 222,834. The Fluorescence ([3]; 1 μM NO3^−) was 43,966 and 35,385 and 47,433, the “fluorescence change with increasing ONOO^− concentration” value [4] was “slight increase in fluorescence intensity” and the “Fluorescence Intensity” value ([4]; 100 nM ONOO^−) was 23,606 and 21,961 and 20,229. For the same molecule, the “Fluorescence Intensity” value ([4]; 1.0 μM ONOO^−) was 46,271 and 39,358 and 35,209, the “Fluorescence Intensity” value ([4]; 2.2 μM ONOO^−−) was 63,954 and 56,351 and 61,987 and the “time to significant increase in fluorescence after H2O2 addition” value [5] was no more than 30 s.
